Legend:
p-AXL = target: T1, p-AXL (Homo sapiens, UniProt P30530); assay: Axl phosphorylation inhibition ELISA in HEK293T cells transfected with NanoLuc-tagged AXL; assay type: cell-based; settings: 1 h compound incubation, media (OptiMEM)
T1 construct: expressed in transfected cells; host or cells: HEK293T
T1 sequence (P30530 26-894): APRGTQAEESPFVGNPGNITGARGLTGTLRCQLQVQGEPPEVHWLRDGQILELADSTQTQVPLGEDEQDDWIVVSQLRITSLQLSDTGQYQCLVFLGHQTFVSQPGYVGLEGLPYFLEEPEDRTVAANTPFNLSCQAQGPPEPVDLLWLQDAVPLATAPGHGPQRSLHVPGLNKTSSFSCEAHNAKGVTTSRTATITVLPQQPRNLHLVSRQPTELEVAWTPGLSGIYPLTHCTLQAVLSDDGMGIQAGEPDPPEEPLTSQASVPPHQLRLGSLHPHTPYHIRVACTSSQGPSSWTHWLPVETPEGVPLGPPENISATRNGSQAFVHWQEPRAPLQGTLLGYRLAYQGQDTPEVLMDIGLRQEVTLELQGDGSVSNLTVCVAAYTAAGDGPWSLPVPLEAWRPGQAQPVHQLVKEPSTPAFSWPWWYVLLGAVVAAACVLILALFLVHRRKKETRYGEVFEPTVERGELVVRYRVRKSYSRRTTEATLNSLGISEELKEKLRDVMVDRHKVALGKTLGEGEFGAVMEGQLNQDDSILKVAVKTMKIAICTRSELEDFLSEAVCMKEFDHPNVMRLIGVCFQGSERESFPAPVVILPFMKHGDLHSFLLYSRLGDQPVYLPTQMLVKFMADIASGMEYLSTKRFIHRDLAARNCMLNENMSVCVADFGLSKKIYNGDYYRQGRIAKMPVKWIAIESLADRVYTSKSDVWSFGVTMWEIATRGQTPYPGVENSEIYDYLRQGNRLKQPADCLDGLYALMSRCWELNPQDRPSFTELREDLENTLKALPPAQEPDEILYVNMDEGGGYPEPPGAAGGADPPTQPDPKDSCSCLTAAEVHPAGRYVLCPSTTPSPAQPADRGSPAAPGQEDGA
Description: [formula] Measurement of Axl Phosphorylation Inhibition
The dose-response assays were performed in S-Bio PrimeSurface® 3D culture: Ultra-low Attachment Plates: 384 well, U bottom (#MS-9384UZ) containing 400 nL of 22 serial 2-fold compound dilutions using Bravo and Echo. ELISA assay was performed on Pierce™ streptavidin coated high capacity 384-well white plates (Thermofisher Cat #15505). The plates were coated overnight at 4° C. with 50 μl/well of biotinlyated phospho-tyrosine mouse mAb (Cell Signaling Technology, 9417s).
HEK293T cells were grown in DMEM containing 10% FBS, 1% Pen/Strep, 1% G-Max. A day before the assay, cells were transiently transfected with 6.8 μg of NanoLuc-tagged AXL plasmid DNA and 8 μg of carrier DNA using FuGENE® HD Transfection Reagent (Promega) according to manufacturer's instructions. On the day of the assay, transfected cells were harvested and resuspended in OptiMEM. 70,000 cells/well were added to the compounds containing assay plates. After a gentle mix and a short spin, the plates were incubated at 37° C. After 1 h, the cells were lysed followed by a brief centrifugation and 30 min of shaking at 300 rpm. Meanwhile, the antibody coated plates were brought to room temperature and then were washed ten times in PBS with 0.05% Tween 20 (ELISA-wash buffer). 50 μl/well of cell lysate was transferred to the ELISA plates and shaken for 2 hours. After washing again with the ELISA wash buffer, the samples were diluted with 25 μl of PBS. The captured NanoLuc tagged p-AXL was detected using Nano-Glo® Luciferase Assay System (Promega) and manufacturer's instruction. The luminescence signal was measured using Envision plate reader. IC50 values were determined by fitting the data to a standard 4-parameter logistic equation.

Axl = target: T2, Axl (Homo sapiens, UniProt P30530); assay: Biochemical potency, HTRF KinEASE-TK kinase assay; design: purchased Invitrogen; settings: 5 nM AXL, 700 μM ATP
T2 sequence (P30530 26-894): T1 sequence (P30530 26-894)
Description: Measurement of Biochemical Compound Potency of Axl Inhibitors
Purified recombinant human AXL, TYRO3 and MER proteins were purchased from Invitrogen™. 10 nM AXL, 2 nM TYRO3 or MER were incubated with varying concentrations of compounds in 50 mM HEPES, pH 7.4, 10 mM MgCl2, 0.01% BSA, 1 mM DTT and 2% DMSO in a total volume of 20 μl in a 384-well microplate (Corning™ #3640) at RT for 1 h. The AXL, TYRO3 and MER enzymatic reaction was initiated by transferring 10 μl of enzyme and compound mixture into 10 μl of 1.6 μM TK Substrate-biotin (HTRF® KinEASE-TK kit, Cisbio) and 1400 μM ATP pre-incubated in 50 mM HEPES, pH 7.4, 10 mM MgCl2, 0.01% BSA, 1 mM DTT in a 384-well microplate (Corning™ #3640) at RT, giving the final reaction conditions: 5 nM AXL, 1 nM TYRO3 or MER, 800 nM TK Substrate-biotin and 700 μM ATP in 50 mM HEPES, pH 7.4, 10 mM MgCl2, 0.01% BSA, 1 mM DTT and 1% DMSO with varying concentrations of compounds. Following 2 h incubation at RT, the AXL, TYRO3 and MER enzymatic reaction was stopped by transfer of 10 μl of reaction into 10 μl of detection mix (400 nM Streptavidin-XL665, 200-fold dilution TK Antibody-Cryptate and detection buffer, HTRF® KinEASE-TK kit, Cisbio) in a white 384-well microplate (Perkin Elmer, OptiPlate 384). After 1 h incubation at RT, the plate was put into a plate reader (Evision) to read at 665/620 nm (acceptor/donor) for HTRF. The value of the DMSO blank (MIN inhibition=100% activity) was used as a negative control. The positive control was established by adding 5 μl of enzyme and DMSO mixture into 10 μl of detection mix followed by addition of 5 μl of TK Substrate-biotin and ATP mixture (MAX inhibition=0% activity). To calculate the percent activity, Equation 1 was used. Ratio665/620 is the value at a given compound concentration: […]

Compound | IC50 (p-AXL) | IC50 (Axl)
CN1CCOc2ccnc(-c3ccc(-c4n[nH]c5ncc(-c6ccc7c(c6)CC[C@@H](N6C8COCC6C8)CC7)cc45)cc3)c21 [Example 151, 6-[(7S)-2-[3-(4-{4-Methyl-2H,3H,4H-pyrido[4,3-b][1,4]oxazin-5-yl}phenyl)-1H-pyrazolo[3,4-b]pyridin-5-yl]-6,7,8,9-tetrahydro-5H-benzo[7]annulen-7-yl]-3-oxa-6-azabicyclo[3.1.1]heptane] | < 100 nM | < 100 nM
Cc1ccc(C)c(-c2ccc(-c3n[nH]c4ncc(-c5ccc6c(c5)CC[C@@](C)(N5CCC[C@H]5C)CC6)cc34)cc2)n1 [Example 136, 3,6-Dimethyl-2-(4-{5-[(7S)-7-methyl-7-[(2R)-2-methylpyrrolidin-1-yl]-6,7,8,9-tetrahydro-5H-benzo[7]annulen-2-yl]-1H-pyrazolo[3,4-b]pyridin-3-yl}phenyl)pyridine] | < 100 nM | < 100 nM
c1cc2c(c(-c3ccc(-c4c[nH]c5ncc(-c6ccc7c(c6)CC[C@@H](N6C8COCC6C8)CC7)cc45)cc3)n1)OCCO2 [Example 194, 6-[(7S)-2-[3-(4-{2H,3H-[1,4]Dioxino[2,3-c]pyridin-5-yl}phenyl)-1H-pyrrolo[2,3-b]pyridin-5-yl]-6,7,8,9-tetrahydro-5H-benzo[7]annulen-7-yl]-3-oxa-6-azabicyclo[3.1.1]heptane] | < 100 nM | < 100 nM
CCn1ncnc1-c1ccc(-c2n[nH]c3ncc(-c4ccc5c(c4)CC[C@@H](N4C6COCC4C6)CC5)cc23)cc1 [Example 138, 6-[(7S)-2-{3-[4-(1-Ethyl-1H-1,2,4-triazol-5-yl)phenyl]-1H-pyrazolo[3,4-b]pyridin-5-yl}-6,7,8,9-tetrahydro-5H-benzo[7]annulen-7-yl]-3-oxa-6-azabicyclo[3.1.1]heptane] | < 100 nM | < 100 nM
Cc1ccc(C)c(-c2ccc(-c3n[nH]c4ncc(-c5ccc6c(c5)CC[C@@H](N5C[C@@H]7C[C@H]5CO7)CC6)cc34)cc2)n1 [Example 141, (1S,4S)-5-[(7S)-2-{3-[4-(3,6-Dimethylpyridin-2-yl)phenyl]-1H-pyrazolo[3,4-b]pyridin-5-yl}-6,7,8,9-tetrahydro-5H-benzo[7]annulen-7-yl]-2-oxa-5-azabicyclo[2.2.1]heptane] | < 100 nM | < 100 nM
Cn1c(-c2ccc(-c3c[nH]c4ncc(-c5ccc6c(c5)CC[C@@H](N5C7COCC5C7)CC6)cc34)cc2)cccc1=O [Example 39, 1-Methyl-6-[4-[5-[(7S)-7-(3-oxa-6-azabicyclo[3.1.1]heptan-6-yl)-6,7,8,9-tetrahydro-5H-benzo[7]annulen-3-yl]-1H-pyrrolo[2,3-b]pyridin-3-yl]phenyl]pyridin-2-one] | < 100 nM | < 100 nM
Cc1cnc(C)c(-c2ccc(-c3c[nH]c4ncc(-c5ccc6c(c5)CC[C@@H](N5C[C@@H]7C[C@H]5CO7)CC6)cc34)cc2)n1 [Example 62, (1S,4S)-5-[(7S)-2-{3-[4-(3,6-Dimethylpyrazin-2-yl)phenyl]-1H-pyrrolo[2,3-b]pyridin-5-yl}-6,7,8,9-tetrahydro-5H-benzo[7]annulen-7-yl]-2-oxa-5-azabicyclo[2.2.1]heptane] | < 100 nM | < 100 nM

Second part, the molecule after the results:

IC50 (p-AXL) | IC50 (Axl) | Compound
100 to 1000 nM | < 100 nM | Cc1cc(C)c(-c2ccc(-c3n[nH]c4ncc(-c5ccc6c(c5)CC[C@@H](N5C7COCC5C7)CC6)cc34)cc2)cn1 [Example 195, 6-[(7S)-2-{3-[4-(4,6-Dimethylpyridin-3-yl)phenyl]-1H-pyrazolo[3,4-b]pyridin-5-yl}-6,7,8,9-tetrahydro-5H-benzo[7]annulen-7-yl]-3-oxa-6-azabicyclo[3.1.1]heptane]
100 to 1000 nM | < 100 nM | Cc1ccc(C(C)(C)O)nc1-c1ccc(-c2c[nH]c3ncc(-c4ccc5c(c4)CC[C@@H](N4C6COCC4C6)CC5)cc23)cc1 [Example 8, 2-[5-Methyl-6-(4-{5-[(7S)-7-{3-oxa-6-azabicyclo[3.1.1]heptan-6-yl}-6,7,8,9-tetrahydro-5H-benzo[7]annulen-2-yl]-1H-pyrrolo[2,3-b]pyridin-3-yl}phenyl)pyridin-2-yl]propan-2-ol]
< 100 nM | < 100 nM | Cc1cccnc1-c1ncc(-c2c[nH]c3ncc(-c4ccc5c(c4)CC[C@@H](N4C6COCC4C6)CC5)cc23)cn1 [Example 38, 6-[(7S)-3-[3-[2-(3-Methylpyridin-2-yl)pyrimidin-5-yl]-1H-pyrrolo[2,3-b]pyridin-5-yl]-6,7,8,9-tetrahydro-5H-benzo[7]annulen-7-yl]-3-oxa-6-azabicyclo[3.1.1]heptane]
< 100 nM | < 100 nM | Cc1cccnc1-c1cnc(-c2c[nH]c3ncc(-c4ccc5c(c4)CC[C@@H](N4C6COCC4C6)CC5)cc23)cn1 [Example 184, 6-[(7S)-2-{3-[5-(3-Methylpyridin-2-yl)pyrazin-2-yl]-1H-pyrrolo[2,3-b]pyridin-5-yl}-6,7,8,9-tetrahydro-5H-benzo[7]annulen-7-yl]-3-oxa-6-azabicyclo[3.1.1]heptane]
> 1000 nM | < 100 nM | Cc1cccc(F)c1-c1ccc(-c2c[nH]c3ncc(-c4ccc5c(c4)CC[C@@H](N4C6COCC4C6)CC5)cc23)cc1 [Example 84, 6-[(7S)-2-(3-{2′-Fluoro-6′-methyl-[1,1′-biphenyl]-4-yl}-1H-pyrrolo[2,3-b]pyridin-5-yl)-6,7,8,9-tetrahydro-5H-benzo[7]annulen-7-yl]-3-oxa-6-azabicyclo[3.1.1]heptane]
< 100 nM | < 100 nM | Cc1cc(F)cnc1-c1ccc(-c2c[nH]c3ncc(-c4ccc5c(c4)CC[C@@H](N4C6COCC4C6)CC5)cc23)nc1 [Example 35, 6-[(7S)-3-[3-[5-(5-Fluoro-3-methylpyridin-2-yl)pyridin-2-yl]-1H-pyrrolo[2,3-b]pyridin-5-yl]-6,7,8,9-tetrahydro-5H-benzo[7]annulen-7-yl]-3-oxa-6-azabicyclo[3.1.1]heptane]

Source: patent US12195482B1 (Arcus Biosciences, Inc., priority 2022, dated 2025)
